Measurements as given in BigSolDB 2.1.

O=C(Nc1ccccc1)Nc1ccnc(Cl)c1
solubility (mole fraction)
Settings	278.15 K	283.15 K	288.15 K	293.15 K	298.15 K	303.15 K	308.15 K	313.15 K	318.15 K	323.15 K
in acetone	0.03	0.0317	0.0346	0.0384	0.042	0.0456	0.0488	0.0544	0.0606	0.0672
in ethanol	0.0171	0.0193	0.0218	0.0248	0.0282	0.0325	0.0373	0.043	0.0495	0.0563
in methanol	0.0119	0.0135	0.0155	0.0183	0.0219	0.0257	0.0305	0.0366	0.0447	0.0541
in n-propanol	0.0171	0.0198	0.0221	0.0257	0.0295	0.034	0.0385	0.0453	0.0515	0.0582
